Source: patent US4621081A, “Cephalosporin antibiotics” (Glaxo Group Limited, priority 1978, dated 1986)

Legend:
[1] = General (broad spectrum) antibiotic activity; type: cell-based
strains of Pseudomonas = assay: Activity against strains of Pseudomonas; type: cell-based
[2] = Distribution in the bodies of small rodents after subcutaneous injection; type: in vivo
[3] = Effect of human serum on antibacterial properties; type: cell-based
[4] = Acute toxicity tests in mice; conditions: mouse, in vivo
Nephrotoxicity in rats = type: in vivo; conditions: dosages of 2.0 g/kg
[5] = Bactericidal action relative to minimum inhibitory concentration; type: cell-based
[6] = Serum levels and serum half-life in primates after intramuscular injection; type: in vivo
[7] = system: strains of Staphylococcus aureas; assay: Activity against strains of Staphylococcus aureas; type: cell-based
[8] = system: strains of Pseudomonas aeruginosa; assay: Experimental infections in mice with strains of Pseudomonas aeruginosa; type: in vivo; conditions: experimental infection
[9] = Effect of increased inocula; type: cell-based
gram-negative bacteria = assay: Experimental infections in mice with gram-negative bacteria; type: in vivo

For `C[n+]1ccc(SCC2=C(C(=O)[O-])N3C(=O)[C@@H](NC(=O)/C(=N\OC(C)(C)C(=O)O)c4csc(N)n4)[C@H]3SC2)cc1` [(6R,7R)-7-[(Z)-2-(2-aminothiazol-4-yl)-2-(2-carboxyprop-2-oxyimino)acetamido]-3-[(1-methylpyridinium-4-yl)-thiomethyl]ceph-3-em-4-carboxylate], the “general antibiotic properties / antibiotic activity” value [1] was “not dissimilar properties to the compound of formula (Ib)”.

For `C[n+]1ccc(SCC2=C(C(=O)[O-])N3C(=O)[C@@H](NC(=O)/C(=N\OC4(C(=O)O)CCC4)c4csc(N)n4)[C@H]3SC2)cc1` [compound of formula (Ib), (6R,7R)-7-[(Z)-2-(2-aminothiazol-4-yl)-2-(1-carboxycyclobut-1-oxyimino)acetamido]-3-[(1-methylpyridinium-4-yl)-thiomethyl]ceph-3-em-4-carboxylate], the “activity against strains of Pseudomonas” value (strains of Pseudomonas) was “excellent activity”, the “distribution in the bodies of small rodents” value [2] was “well distributed” and the “therapeutic levels in small rodents” value [2] was “useful therapeutic levels”. The “antibacterial properties impaired by human serum” value [3] was “not impaired”, the LD50 [4] was over 1000 mg/kg and the nephrotoxicity in rats (Nephrotoxicity in rats) was “No nephrotoxicity was observed”. The “bactericidal at concentrations close to the minimum inhibitory concentration” value [5] was “rapidly bactericidal”, the “general antibiotic properties / antibiotic activity” value [1] was “possesses to an outstanding extent the general antibiotic properties” and the “half-life in man (probability, from serum half-life in primates)” value ([6]; man, inferred from serum half-life in primates) was “comparatively long half-life”. The “serum levels in primates” value ([6]; primates, intramuscular injection) was “high and long lasting serum levels”, the “activity against strains of Staphylococcus aureas” value [7] was “useful activity” and the “protection against strains of Pseudomonas aeruginosa” value [8] was “excellent protection”. For the same molecule, the “protection compared with the treatment with an aminoglycoside such as amikacin” value ([8]; versus an aminoglycoside such as amikacin) was “comparable”, the “effect of increased inocula against the compound” value [9] was “low” and the “treatment of experimental infections in mice with gram-negative bacteria” value (gram-negative bacteria) was “successfully treated”.
